Five compounds from ChEMBL document CHEMBL5338741, “Discovery of an In Vivo Chemical Probe for BCL6 Inhibition by Optimization of Tricyclic Quinolinones” (J Med Chem, 2023) can be followed below.

Experiment [1] deals with BCL-6/NCOR2 (Homo sapiens) (UniProt Q9Y618+P41182). The note with it: HEK293T, time 6.0 hrs.
Experiment [2] has as its target B-cell lymphoma 6 protein (Homo sapiens, UniProt P41182).
The target of the next experiment is BCL-6/NCOR2 (Homo sapiens, UniProt P41182). Type of experiment: cell-based, HEK293T.

BCL-6/NCOR2 (Homo sapiens), sequence (Q9Y618 whole entry, looked up, other chains not shown): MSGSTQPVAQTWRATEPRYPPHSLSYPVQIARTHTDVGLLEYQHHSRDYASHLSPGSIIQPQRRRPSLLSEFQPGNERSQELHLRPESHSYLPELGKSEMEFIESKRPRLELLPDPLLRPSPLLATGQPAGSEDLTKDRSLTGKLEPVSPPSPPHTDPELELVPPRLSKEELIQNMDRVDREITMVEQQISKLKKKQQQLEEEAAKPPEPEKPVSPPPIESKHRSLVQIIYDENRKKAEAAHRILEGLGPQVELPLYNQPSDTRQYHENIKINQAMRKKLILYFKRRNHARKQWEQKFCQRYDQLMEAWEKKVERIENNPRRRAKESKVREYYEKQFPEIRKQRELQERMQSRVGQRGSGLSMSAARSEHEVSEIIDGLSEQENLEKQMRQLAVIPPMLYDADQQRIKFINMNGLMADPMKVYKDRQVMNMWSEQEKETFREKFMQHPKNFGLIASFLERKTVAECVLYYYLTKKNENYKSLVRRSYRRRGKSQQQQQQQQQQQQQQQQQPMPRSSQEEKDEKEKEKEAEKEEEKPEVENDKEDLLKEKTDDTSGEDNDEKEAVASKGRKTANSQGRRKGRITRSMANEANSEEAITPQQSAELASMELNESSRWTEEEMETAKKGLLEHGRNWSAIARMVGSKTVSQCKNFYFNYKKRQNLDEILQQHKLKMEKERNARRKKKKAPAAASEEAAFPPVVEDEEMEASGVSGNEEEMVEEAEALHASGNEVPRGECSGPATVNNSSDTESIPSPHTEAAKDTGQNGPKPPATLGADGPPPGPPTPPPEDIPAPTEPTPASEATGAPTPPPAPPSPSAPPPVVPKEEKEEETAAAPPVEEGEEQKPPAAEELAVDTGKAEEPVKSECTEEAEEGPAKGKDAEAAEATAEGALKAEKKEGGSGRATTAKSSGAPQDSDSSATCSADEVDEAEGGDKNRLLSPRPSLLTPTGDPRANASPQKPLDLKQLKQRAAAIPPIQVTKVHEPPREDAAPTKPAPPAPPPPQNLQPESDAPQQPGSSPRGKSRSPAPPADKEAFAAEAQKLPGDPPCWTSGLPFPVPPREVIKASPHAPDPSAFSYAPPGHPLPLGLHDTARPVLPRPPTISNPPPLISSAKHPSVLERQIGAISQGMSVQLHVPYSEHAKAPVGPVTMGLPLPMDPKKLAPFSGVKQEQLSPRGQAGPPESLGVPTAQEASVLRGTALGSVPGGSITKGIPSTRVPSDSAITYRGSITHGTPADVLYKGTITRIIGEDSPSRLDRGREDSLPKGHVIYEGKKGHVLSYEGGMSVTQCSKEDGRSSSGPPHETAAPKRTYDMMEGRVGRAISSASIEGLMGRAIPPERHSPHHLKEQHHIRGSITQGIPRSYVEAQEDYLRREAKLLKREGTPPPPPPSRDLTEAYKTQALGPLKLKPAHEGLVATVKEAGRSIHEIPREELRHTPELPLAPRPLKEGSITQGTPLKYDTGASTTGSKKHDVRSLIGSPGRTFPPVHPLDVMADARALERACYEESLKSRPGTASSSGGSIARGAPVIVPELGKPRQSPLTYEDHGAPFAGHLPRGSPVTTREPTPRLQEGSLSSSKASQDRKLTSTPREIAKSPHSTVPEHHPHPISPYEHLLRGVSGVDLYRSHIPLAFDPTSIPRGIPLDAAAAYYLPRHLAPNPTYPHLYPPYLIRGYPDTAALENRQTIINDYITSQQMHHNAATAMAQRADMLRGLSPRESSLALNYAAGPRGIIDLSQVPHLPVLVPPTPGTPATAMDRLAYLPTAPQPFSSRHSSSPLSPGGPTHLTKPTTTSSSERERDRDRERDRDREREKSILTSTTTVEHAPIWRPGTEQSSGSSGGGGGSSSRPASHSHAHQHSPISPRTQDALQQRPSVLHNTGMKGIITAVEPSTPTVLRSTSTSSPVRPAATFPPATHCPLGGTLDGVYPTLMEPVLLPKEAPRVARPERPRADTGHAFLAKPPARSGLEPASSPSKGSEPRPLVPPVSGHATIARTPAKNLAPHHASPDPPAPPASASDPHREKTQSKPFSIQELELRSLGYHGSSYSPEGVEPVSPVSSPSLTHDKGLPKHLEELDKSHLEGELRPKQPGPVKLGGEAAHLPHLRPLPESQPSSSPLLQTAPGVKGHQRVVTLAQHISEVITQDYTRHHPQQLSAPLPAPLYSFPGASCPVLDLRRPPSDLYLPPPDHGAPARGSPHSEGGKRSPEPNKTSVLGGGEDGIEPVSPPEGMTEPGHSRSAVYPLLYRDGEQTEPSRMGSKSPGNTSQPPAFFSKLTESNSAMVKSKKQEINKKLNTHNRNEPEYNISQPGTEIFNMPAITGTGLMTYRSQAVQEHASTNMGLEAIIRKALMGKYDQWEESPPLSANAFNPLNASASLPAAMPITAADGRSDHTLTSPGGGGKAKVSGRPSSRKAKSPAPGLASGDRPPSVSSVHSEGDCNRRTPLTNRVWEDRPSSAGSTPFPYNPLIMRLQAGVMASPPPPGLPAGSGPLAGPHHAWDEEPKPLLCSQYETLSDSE

For the compound `Cn1c(=O)c2c(c3cc(Nc4ccnc(F)c4Cl)ccc31)N[C@@H](C1CC1)C(F)(F)CO2`, in experiment [1], the fIC50 came to 6.8 nM and the fIC90 came to 44 nM.
`Cn1c(=O)c2c(c3cc(Nc4nc(N5CC(F)(F)C5)ncc4Cl)ccc31)N[C@@H](C1CC1)C(F)(F)CO2`: in experiment [1], the fIC50 stood at 8.9 nM and the fIC90 is 50 nM.
The term IC50 denotes the concentration at which inhibition is half-maximal. A high value points to lower potency. As for `CC(=O)N1CC2CCC(C1)N2c1ncc(Cl)c(Nc2ccc3c(c2)c2c(c(=O)n3C)OCC(F)(F)[C@H](C3CC3)N2)n1`, the IC50 in experiment [2] turned out to be 0.9 nM; at BCL-6/NCOR2, 26.9 nM.
Regarding `CC(=O)N1C2CCC1CN(c1ncc(Cl)c(Nc3ccc4c(c3)c3c(c(=O)n4C)OCC(F)(F)[C@H](C4CC4)N3)n1)C2`, the IC50 in experiment [2] amounted to 1.9 nM; at BCL-6/NCOR2 it was 41 nM.
Broadly, the IC90 is the point of the concentration-response curve where the effect stands at 90%. The low end stands for greater potency, the high end for weaker potency. As to `Cn1c(=O)c2c(c3cc(Nc4nc(N5C6CCC5COC6)ncc4Cl)ccc31)N[C@@H](C1CC1)C(F)(F)CO2`, in experiment [1], the 90% effect level (IC90) was put at 3.2 nM, the fIC50 is 143 nM and the fIC90 was 42 nM.
